Target: T1, WT/R232 STING protein (Homo sapiens, UniProt Q86WV6, H232R)
T1 construct: host or cells: HEK293T
Test: Luciferase reporter assay in HEK293T-hSTING-Luciferase cells, WT/R232
Assay type: cell-based
Details: 20 hr stimulation, read-out: R232 Activity (EC50 range)
Text: • a) Stable STING expressing cells—Stable HEK293T STING-expressing cell lines were generated using plasmids purchased from Invivogen, Calif., USA, that contain STING cDNA cloned into the pUNO-1 vector under hEF1-HTLV promoter and containing the Blasticidin selection cassette. The plasmids hSTING(R232), hSTING(H232), hSTING(HAQ) were directly procured from Invivogen while hSTING (AQ) and hSTING (Q) were derived from hSTING(HAQ) and hSTING (R232) plasmids respectively by using a PCR based site directed mutagenesis method. These vectors were individually transfected into HEK293T cells using Lipofectamine (Invitrogen) and transfected cells were selected under Blasticidin selection. These transfected cells were further subjected to clonal selection using the limiting dilution method to obtain clonally pure populations of HEK cells transfected with each of the above mentioned human STING variants. Only those clones were selected in which ligand independent activation of STING was minimal. • b) Stable Luciferase reporter gene expressing cells—Stable HEK293T Luciferase reporter gene expressing cell lines were generated using pCDNA4 plasmids under an IRF-inducible promoter. This promoter is comprised of five tandem interferon-stimulated response elements (ISRE) fused to an ISG54 minimal promoter. This vector was transfected into HEK293T cells using Lipofectamine (Invitrogen) and transfected cells were selected under Zeocin selection. These transfected cells were further subjected to clonal selection using the limiting dilution method to obtain clonally pure populations of HEK cells transfected the Luciferase reporter construct. Only those clones were selected in which ligand independent induction of luciferase was minimal.
5×10^5 clonally selected HEK293T-hSTING-Luciferase cells were seeded in 384-well plates in growth medium and stimulated with novel compounds. After 20 hr of stimulation supernatant were removed and secretary reporter gene activity were measured using the Quanti-Luc detection system (Invivogen) on a Spectramax i3X luminometer.
All compounds were first tested in a primary screen using WT/R232 STING protein to obtain a ‘fold-induction’ over baseline levels of protein activity.

T1 sequence (Q86WV6 whole entry H232R): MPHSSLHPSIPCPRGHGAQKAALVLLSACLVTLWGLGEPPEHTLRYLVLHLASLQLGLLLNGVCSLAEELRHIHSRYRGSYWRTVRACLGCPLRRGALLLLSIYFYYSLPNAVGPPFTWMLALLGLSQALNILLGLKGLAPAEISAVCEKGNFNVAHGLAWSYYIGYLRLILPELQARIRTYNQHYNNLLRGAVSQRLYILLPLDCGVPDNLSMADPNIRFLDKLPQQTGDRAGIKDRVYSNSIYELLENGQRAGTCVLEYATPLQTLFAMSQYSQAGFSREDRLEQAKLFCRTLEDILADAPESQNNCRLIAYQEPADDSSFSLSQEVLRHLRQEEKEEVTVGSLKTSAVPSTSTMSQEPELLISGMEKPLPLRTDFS

| SMILES | EC50 [µM] |
| --- | --- |
| CC1Sc2ccc(C(=O)NCc3cnccn3)cc2N(Cc2cc(F)cc(F)c2)C1=O (stereo not shown) [Example 168, 4-(3,5-difluorobenzyl)-2-methyl-3-oxo-N-(pyrazin-2-ylmethyl)-3,4-dihydro-2H-benzo [b][1,4]thiazine-6-carboxamide] | > 10 |
| N#CCN(Cc1ccccc1)C(=O)c1ccc2c(c1)N(Cc1ccccc1)C(=O)CS2 [Example 56, N,4-dibenzyl-N-(cyanomethyl)-3-oxo-3,4-dihydro-2H-benzo[b-1,4]thiazine-6-carboxamide] | > 10 |
| CC1(F)Sc2ccc(C(=O)NCc3c(F)cc(F)cc3F)cc2N(Cc2c(F)cccc2Cl)C1=O (stereo not shown) [Example 165, 4-(2-chloro-6-fluorobenzyl)-2-fluoro-2-methyl-3-oxo-N-(2,4,6-trifluorobenzyl)-3,4-dihydro-2H-benzo[b][1,4] thiazine-6-carboxamide] | > 10 |
| O=C(NCc1ccco1)c1ccc2c(c1)N(CC(O)c1ccccc1)C(=O)CS2 (stereo not shown) [Example 17, N-(furan-2-ylmethyl)-4-(2-hydroxy-2-phenylethyl)-3-oxo-3,4-dihydro-2H-benzo[b-1,4]thiazine-6-carboxamide] | > 10 |
| O=C(NCCc1ccccc1)c1ccc2c(c1)N(Cc1c(F)cccc1Cl)C(=O)CS2 [Example 129, 4-(2-chloro-6-fluorobenzyl)-3-oxo-N-phenethyl-3,4-dihydro-2H-benzo[b-1,4]thiazine-6-carboxamide] | > 10 |
| CCOC1Sc2ccc(C(=O)NCc3ccco3)cc2N(Cc2ccccc2F)C1=O (stereo not shown) [Example 137, 2-ethoxy-4-(2-fluorobenzyl)-N-(furan-2-ylmethyl)-3-oxo-3,4-dihydro-2H-benzo[b-1,4]thiazine-6-carboxamide] | > 10 |
| O=C(NCC1CCCO1)c1ccc2c(c1)N(Cc1c(F)cccc1Cl)C(=O)CS2 (stereo not shown) [Example 130, 4-(2-chloro-6-fluorobenzyl)-3-oxo-N-((tetrahydrofuran-2-yl)methyl)-3,4-dihydro-2H-benzo[b-1,4]thiazine-6-carboxamide] | > 10 |
| O=C(NCc1ccco1)c1ccc2c(c1)N(C(=O)c1ccccc1F)CCO2 [Example 263, 4-(2-fluorobenzoyl)-N-(furan-2-ylmethyl)-3,4-dihydro-2H-benzo[b-1,4]oxazine-6-carboxamide] | > 10 |
| Cc1ccc(CN2CCC(CNC(=O)c3ccc4c(c3)N(Cc3c(F)cccc3Cl)C(=O)CS4)CC2)cc1 [Example 128, 4-(2-chloro-6-fluorobenzyl)-N-((1-(4-methylbenzyl)piperidin-4-yl)methyl)-3-oxo-3,4-dihydro-2H-benzo[b][1,4]thiazine-6-carboxamide] | > 10 |
| O=C(NC(c1ccccc1)C1CCCCC1)c1ccc2c(c1)N(Cc1ccccc1F)C(=O)CS2 (stereo not shown) [Example 110, N-(cyclohexyl (phenyl)methyl)-4-(2-fluorobenzyl)-3-oxo-3,4-dihydro-2H-benzo[b][1,4] thiazine-6-carboxamide] | > 10 |
| Cc1cccc(CNC(=O)c2ccc3c(c2)N(Cc2ccccc2Cl)C(=O)C(C)S3)c1 (stereo not shown) [Example 143, 4-(2-chlorobenzyl)-2-methyl-N-(3-methylbenzyl)-3-oxo-3,4-dihydro-2H-benzo[b-1,4]thiazine-6-carboxamide] | 1 to 10 |
| O=C(NCc1cc2ccccc2o1)c1cnc2c(c1)N(Cc1cc(F)cc(F)c1)C(=O)CC2 [Example 278, N-(benzofuran-2-ylmethyl)-5-(3,5-difluorobenzyl)-6-oxo-5,6,7,8-tetrahydro-1,5-naphthyridine-3-carboxamide] | > 10 |
| O=C(NC(c1ccccc1)c1ccccc1)c1ccc2c(c1)N(Cc1ccccc1F)C(=O)CS2 [Example 42, N-benzhydryl-4-(2-fluorobenzyl)-3-oxo-3,4-dihydro-2H-benzo[b][1,4] thiazine-6-carboxamide] | > 10 |
| CC(C)(NC(=O)c1ccc2c(c1)N(Cc1ccccc1)C(=O)CS2)c1ccccc1F [Example 78, 4-benzyl-N-(2-(2-fluorophenyl)propan-2-yl)-3-oxo-3,4-dihydro-2H-benzo[b-1,4]thiazine-6-carboxamide] | > 10 |
| O=C(NCC1CCCCC1)c1cnc2c(c1)N(Cc1c(F)cccc1Cl)C(=O)CS2 [Example 179, 1-(2-chloro-6-fluorobenzyl)-N-(cyclohexyl-methyl)-2-oxo-2,3-dihydro-1H-pyrido[2,3-b-1,4]thiazine-7-carboxamide] | > 10 |
| Cc1cnc(CNC(=O)c2ccc3c(c2)N(Cc2cc(F)cc(F)c2)C(=O)C(C)S3)o1 (stereo not shown) [Example 163, 4-(3,5-difluorobenzyl)-2-methyl-N-((5-methyloxazol-2-yl)methyl)-3-oxo-3,4-dihydro-2H-benzo[b][1,4] thiazine-6-carboxamide] | 1 to 10 |
| O=C(NCc1c(F)cc(F)cc1F)c1ccc2c(c1)N(C(=O)c1ccncc1)CCS2 [Example 260, 4-isonicotinoyl-N-(2,4,6-trifluorobenzyl)-3,4-dihydro-2H-benzo[b][1,4]thiazine-6-carboxamide] | > 10 |
| O=C(NCc1ccccc1-c1ccccc1)c1ccc2c(c1)N(Cc1c(F)cccc1Cl)C(=O)CS2 [Example 46, N-([1,1′-biphenyl]-2-ylmethyl)-4-(2-chloro-6-fluorobenzyl)-3-oxo-3,4-dihyddro-2H-benzo[b][1,4] thiazine-6-carboxamide] | > 10 |
| O=C(NCc1c(F)cc(F)cc1F)c1cnc2c(c1)N(Cc1cc(F)cc(F)c1)C(=O)CC2 [Example 276, 5-(3,5-Difluorobenzyl)-6-oxo-N-(2,4,6-trifluorobenzyl)-5,6,7,8-tetrahydro-1,5-naphthyridine-3-carboxamide] | 1 to 10 |
| O=C(NCc1c(F)cc(F)cc1F)c1ccc2c(c1)N(Cc1c(F)cc(O)cc1F)C(=O)CS2 [Example 115, 4-(2,6-difluoro-4-hydroxybenzyl)-3-oxo-N-(2,4,6-trifluorobenzyl)-3,4-dihydro-2H-benzo[b][1,4] thiazine-6-carboxamide] | < 1 |
| CC(NC(=O)c1ccc2c(c1)N(Cc1ccccc1F)C(=O)CS2)C12C[C@H]3C[C@@H](C1)C[C@@H](C2)C3 (stereo partly shown) [Example 23, N-(1-((3r,5r,7r)-adamantan-1-yl)ethyl)-4-(2-fluorobenzyl)-3-oxo-3,4-dihydro-2H-benzo[b-1,4]thiazine-6-carboxamide] | > 10 |
| CN(Cc1ccco1)C(=O)c1ccc2c(c1)N(Cc1ccccc1)C(=O)CS2 [Example 33, 4-benzyl-N-(furan-2-ylmethyl)-N-methyl-3-oxo-3,4-dihydro-2H-benzo[b][1,4] thiazine-6-carboxamide] | > 10 |
| O=C(NCc1c(F)cc(F)cc1F)c1cnc2c(c1)N(Cc1c(F)cccc1Cl)C(=O)CO2 [Example 239, 1-(2-chloro-6-fluorobenzyl)-2-oxo-N-(2,4,6-trifluorobenzyl)-2,3-dihydro-1H-pyrido[2,3-b-1,4]oxazine-7-carboxamide] | > 10 |
| Cc1cnc(CNC(=O)c2ccc3c(c2)N(Cc2cnn(C)c2)C(=O)C(C)S3)o1 (stereo not shown) [Example 173, 2-methyl-4-((1-methyl-1H-pyrazol-4-yl)methyl)-N-((5-methyloxazol-2-yl)methyl)-3-oxo-3,4-dihydro-2H-benzo[b][1,4] thiazine-6-carboxamide] | > 10 |
| CC1Sc2ncc(C(=O)NCc3cnccn3)cc2N(Cc2cc(F)cc(F)c2)C1=O (stereo not shown) [Example 217, 1-(3,5-difluorobenzyl)-3-methyl oxo-N-(pyrazin-2-ylmethyl)-2,3 dihydro-1H-pyrido[2,3-b][1,4]thiazine-7-carboxamide] | > 10 |

Reference: patent US20200138827A1, “SMALL MOLECULE MODULATORS OF HUMAN STING” (Curadev Pharma Limited, priority 2017, published 2020)
